# Measurements as given in patent EP4745153A1, “GLP-1, GIP AND GCG RECEPTOR […] USE THEREOF” (Jiangsu Hengrui Pharmaceuticals Co., Ltd., priority 2023, dated 2025).
# Read-outs that look alike come from different tables or passages of the source. Starred links: 1 amine or outer side, 2 acyl side, 3 side chain; linkers in the order of their positions; H or OH if unused. Non-standard residues stand in square brackets, D forms with d. Residues, ends and D or L forms follow the SMILES beside them. Groups on a side chain read outwards from the residue. ξ: configuration not given here. *: point of attachment. C20 diacid = O=C(O)CCCCCCCCCCCCCCCCCCC(=O)*; γGlu = O=C(O)[C@H](CCC(=O)[*:2])N[*:1]; αMeK = C[C@](N)(CCCCN)C(=O)O; ξIva = CCC(C)(N)C(=O)O; AEEA = NCCOCCOCC(=O)O; Aib = CC(C)(N)C(=O)O
# Columns and labels:
# human GCGR = biological target: T1, human GCGR (Homo sapiens, UniProt P47871); experiment: cAMP HTRF agonist activity assay in CHO-K1 cells expressing GCGR; format: cell-based; for Activity against human GCGR (EC50 nM): 5% FBS, 0.1% Casein
# T1 construct: expressed in transfected cells; host or cells: CHO-K1 clonal cell line
# T1 sequence (P47871 26-477): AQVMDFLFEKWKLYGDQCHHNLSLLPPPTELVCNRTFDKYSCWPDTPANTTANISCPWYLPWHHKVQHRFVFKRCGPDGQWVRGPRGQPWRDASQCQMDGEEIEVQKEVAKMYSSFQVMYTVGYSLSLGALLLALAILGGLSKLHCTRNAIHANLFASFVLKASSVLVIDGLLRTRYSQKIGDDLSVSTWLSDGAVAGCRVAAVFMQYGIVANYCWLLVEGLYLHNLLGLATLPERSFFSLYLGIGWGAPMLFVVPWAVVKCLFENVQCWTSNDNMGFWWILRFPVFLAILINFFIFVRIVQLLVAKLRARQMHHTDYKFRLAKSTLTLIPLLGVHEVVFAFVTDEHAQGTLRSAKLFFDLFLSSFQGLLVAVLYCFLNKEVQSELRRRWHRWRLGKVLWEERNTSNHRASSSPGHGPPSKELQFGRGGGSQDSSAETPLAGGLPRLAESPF
# Experimental: Functional activity was determined in CHO-K1 clonal cell lines expressing GIPR, GLP-1R, and GCGR. […] Each recipient cell (5000 cells/well) was added to an SV 96-well plate (Cisbio, 66PL96025) and incubated with the prepared polypeptide at 37°Cfor 30 min. The resulting increase in intracellular cAMP was quantitatively measured using the cAMP-GS dynamic HTRF assay kit (Cisbio, 62AM4PEJ). Briefly, the intracellular cAMP levels were determined by adding cAMP-d2 conjugate in cell lysis buffer, followed by the antibody anti-cAMP-Eu cryptate (also in cell lysis buffer).
# Using the maximum response percentage vs. the added polypeptide concentration, the relative EC50 values were derived through nonlinear regression analysis and fitted to a four-parameter logarithmic equation. For specific data, refer to Tables 7-1 to 7-8 below. […]
# human GIPR = biological target: T2, human GIPR (Homo sapiens, UniProt P48546); experiment: cAMP HTRF agonist activity assay in CHO-K1 cells expressing GIPR; format: cell-based; conditions: read-out: Activity against human GIPR (EC50 nM); note: 5% FBS, 0.1% Casein
# T2 construct: expressed in transfected cells; host or cells: CHO-K1 clonal cell line
# T2 sequence (P48546 22-466): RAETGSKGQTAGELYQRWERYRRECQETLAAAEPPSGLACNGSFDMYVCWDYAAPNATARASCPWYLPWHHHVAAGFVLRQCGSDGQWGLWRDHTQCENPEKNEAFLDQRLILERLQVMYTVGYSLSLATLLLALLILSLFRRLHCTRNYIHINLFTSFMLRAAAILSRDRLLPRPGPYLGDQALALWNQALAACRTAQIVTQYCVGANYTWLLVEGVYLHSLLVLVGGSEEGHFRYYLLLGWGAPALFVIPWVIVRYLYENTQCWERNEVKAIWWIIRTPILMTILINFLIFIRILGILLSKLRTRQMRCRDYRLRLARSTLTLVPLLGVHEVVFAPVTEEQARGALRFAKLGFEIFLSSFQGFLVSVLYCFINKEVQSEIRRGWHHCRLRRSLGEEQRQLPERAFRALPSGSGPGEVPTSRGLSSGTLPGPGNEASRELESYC
# In short: (§1)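 cAMP accumulation measured by competitive HTRF after 30 min incubation of polypeptides with 5000 receptor-expressing CHO-K1 cells/well at 37°C. Percent of maximal response versus concentration fitted to a four-parameter logistic to give relative EC50.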
# human GLP-1R = biological target: T3, human GLP-1R (Homo sapiens, UniProt P43220); experiment: cAMP HTRF agonist activity assay in CHO-K1 cells expressing GLP-1R; format: cell-based; for Activity against human GLP-1R (EC50 nM): 5% FBS, 0.1% Casein
# T3 construct: expressed in transfected cells; host or cells: CHO-K1 clonal cell line
# T3 sequence (P43220 24-463): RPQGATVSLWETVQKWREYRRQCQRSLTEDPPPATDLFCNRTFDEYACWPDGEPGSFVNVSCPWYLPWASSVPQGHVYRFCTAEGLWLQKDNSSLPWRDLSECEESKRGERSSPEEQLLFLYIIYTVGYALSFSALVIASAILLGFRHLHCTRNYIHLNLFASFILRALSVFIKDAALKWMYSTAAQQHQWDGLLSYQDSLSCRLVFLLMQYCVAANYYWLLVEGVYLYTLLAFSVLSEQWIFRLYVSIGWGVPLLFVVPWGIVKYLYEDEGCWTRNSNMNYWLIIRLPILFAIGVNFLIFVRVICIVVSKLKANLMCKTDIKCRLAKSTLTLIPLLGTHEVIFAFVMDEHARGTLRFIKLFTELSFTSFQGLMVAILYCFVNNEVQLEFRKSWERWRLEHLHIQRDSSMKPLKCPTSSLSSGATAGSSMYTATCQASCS
# In short: as §1
# [1] = Pharmacokinetics in mice after single intravenous injection; set-up: species or system C57 mice; conditions: mouse, in vivo, male C57 mice, single intravenous dose 200 nmol/kg, plasma
# In short: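 Plasma concentrations were measured by positive-mode ESI LC-MS/MRM, with verapamil as internal standard, at time points from 5 min to 72 h. Samples came from three male C57 mice per compound, aged 4-6 weeks, dosed once intravenously with 200 nmol/kg in 1×PBS; PK parameters were derived with PKSolver.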
# [2] = read-out: Activity against human GCGR (EC50 nM)
Compound,EC50 (human GCGR; [2]) [nM],EC50 (human GIPR) [nM],EC50 (human GLP-1R; read-out: Activity against human GLP-1R (EC50 nM)) [nM],EC50 (human GCGR) [nM],AUC(0-inf) [1] [µM·h],C0 [1] [µM],clearance ([1]; read-out: CLp) [mL/min/kg],half-life ([1]; read-out: T1/2 (converted)) [h],EC50 (human GLP-1R) [nM]
CC[C@H](C)[C@H](NC(=O)[C@H](CC(C)C)NC(=O)[C@H](Cc1c[nH]c2ccccc12)NC(=O)[C@H](CCC(=O)O)NC(=O)[C@@H](NC(=O)[C@H](Cc1ccccc1)NC(=O)[C@H](CCC(=O)O)NC(=O)C(C)(CC)NC(=O)[C@H](C)NC(=O)[C@H](C)NC(=O)[C@H](CCCCN)NC(=O)[C@H](CCCCNC(=O)COCCOCCNC(=O)COCCOCCNC(=O)CC[C@H](NC(=O)CCCCCCCCCCCCCCCCCCC(=O)O)C(=O)O)NC(=O)[C@H](CCC(=O)O)NC(=O)[C@H](CC(C)C)NC(=O)[C@H](CC(C)C)NC(=O)[C@](C)(CCCCN)NC(=O)[C@H](CO)NC(=O)[C@H](CC(C)C)NC(=O)[C@H](CC(=O)O)NC(=O)[C@H](CO)NC(=O)[C@@H](NC(=O)[C@H](Cc1ccccc1)NC(=O)[C@@H](NC(=O)CNC(=O)[C@H](Cc1c[nH]cn1)NC(=O)C(C)(C)NC(=O)[C@@H](N)Cc1c[nH]cn1)[C@@H](C)O)[C@@H](C)O)C(C)C)C(=O)N[C@@H](CCC(=O)O)C(=O)NCC(=O)NCC(=O)N1CCC[C@H]1C(=O)N[C@@H](CO)C(=O)N[C@@H](CO)C(=O)NCC(=O)N[C@@H](C)C(=O)N1CCC[C@H]1C(=O)N1CCC[C@H]1C(=O)N1CCC[C@H]1C(=O)N[C@@H](CO)C(N)=O (some centres unmarked) [Compound 0133] (H-H[Aib]HGTFTSDLS[αMeK]LLEK([AEEA-AEEA-γGlu-C20 diacid])KAA[ξIva]EFVEWLIEGGPSSGAPPPS-NH2),0.03,0.002,0.016,–,–,–,–,–,–
CC[C@H](C)[C@H](NC(=O)[C@H](CO)NC(=O)[C@H](CC(C)C)NC(=O)[C@H](CC(=O)O)NC(=O)[C@H](CO)NC(=O)[C@@H](NC(=O)[C@H](Cc1ccccc1)NC(=O)[C@@H](NC(=O)CNC(=O)[C@H](Cc1c[nH]cn1)NC(=O)C(C)(C)NC(=O)[C@@H](N)Cc1c[nH]cn1)[C@@H](C)O)[C@@H](C)O)C(=O)N[C@@](C)(CC(C)C)C(=O)N[C@@H](CC(C)C)C(=O)N[C@@H](CCC(=O)O)C(=O)N[C@@H](CCCCNC(=O)COCCOCCNC(=O)COCCOCCNC(=O)CC[C@H](NC(=O)CCCCCCCCCCCCCCCCCCC(=O)O)C(=O)O)C(=O)N[C@@H](CCCCN)C(=O)N[C@@H](C)C(=O)N[C@@H](C)C(=O)NC(C)(CC)C(=O)N[C@@H](CCC(=O)O)C(=O)N[C@@H](Cc1ccccc1)C(=O)N[C@H](C(=O)N[C@@H](CCC(=O)O)C(=O)N[C@@H](Cc1c[nH]c2ccccc12)C(=O)N[C@@H](CC(C)C)C(=O)N[C@@H](CC(C)C)C(=O)N[C@@H](C)C(=O)NCC(=O)NCC(=O)N1CCC[C@H]1C(=O)N[C@@H](CO)C(=O)N[C@@H](CO)C(=O)NCC(=O)N[C@@H](C)C(=O)N1CCC[C@H]1C(=O)N1CCC[C@H]1C(=O)N1CCC[C@H]1C(=O)N[C@@H](CO)C(N)=O)C(C)C (some centres unmarked) [Compound 0138],–,–,–,0.055,18.5,3.28,0.181,8.2,0.019
CC(C)C[C@H](NC(=O)[C@H](CC(C)C)NC(=O)[C@H](Cc1c[nH]c2ccccc12)NC(=O)[C@H](CCC(=O)O)NC(=O)[C@@H](NC(=O)[C@H](Cc1ccccc1)NC(=O)[C@H](CCC(=O)O)NC(=O)[C@H](CCC(N)=O)NC(=O)[C@H](C)NC(=O)[C@H](C)NC(=O)[C@H](CCCCN)NC(=O)[C@H](CCCCNC(=O)COCCOCCNC(=O)COCCOCCNC(=O)CC[C@H](NC(=O)CCCCCCCCCCCCCCCCCCC(=O)O)C(=O)O)NC(=O)[C@H](CCC(=O)O)NC(=O)[C@H](CC(C)C)NC(=O)[C@H](CC(C)C)NC(=O)[C@](C)(CCCCN)NC(=O)[C@H](CO)NC(=O)[C@H](Cc1ccc(O)cc1)NC(=O)[C@H](CC(=O)O)NC(=O)[C@H](CO)NC(=O)[C@@H](NC(=O)[C@H](Cc1ccccc1)NC(=O)[C@@H](NC(=O)CNC(=O)[C@H](Cc1c[nH]cn1)NC(=O)C(C)(C)NC(=O)[C@@H](N)Cc1c[nH]cn1)[C@@H](C)O)[C@@H](C)O)C(C)C)C(=O)N[C@@H](C)C(=O)NCC(=O)NCC(=O)N1CCC[C@H]1C(=O)N[C@@H](CO)C(=O)N[C@@H](CO)C(=O)NCC(=O)N[C@@H](C)C(=O)N1CCC[C@H]1C(=O)N1CCC[C@H]1C(=O)N1CCC[C@H]1C(=O)N[C@@H](CO)C(N)=O [Compound 0112] (H-H[Aib]HGTFTSDYS[αMeK]LLEK([AEEA-AEEA-γGlu-C20 diacid])KAAQEFVEWLLAGGPSSGAPPPS-NH2),0.087,0.005,–,–,–,–,–,–,–
